Measured values published in patent publication US10420745B2 (priority 2015, dated 2019).

system: Clostridium perfringens-induced necrotic enteritis; assay type: in vivo, broiler chicken; conditions: Ross 308 broilers, lower concentration in feed (2.5/2/1.5 kg/ton weeks 1/2/3), adsorbed on silica carrier, C. perfringens challenge days 17-20, scoring day 21; positive control 71%

Question: How did the “animals within the group diagnosed as necrotic enteritis positive (macroscopic lesion score ≥2)” value turn out when `CCCCC(=O)OCC(O)CO` (stereo not shown) [Glyceryl monovalerate] was run?
Answer: Its value is 27%.

system: Clostridia perfringens; assay type: cell-based; conditions: minimum inhibitory concentration towards Clostridia perfringens, in vitro

Question: How did the MIC turn out when `CCCCC(=O)OCC(O)CO` (stereo not shown) [Glyceryl monovalerate] was run?
Answer: The MIC was 15 mmol.

Question: With `CCCC(=O)OCC(O)CO` (stereo not shown) [Glyceryl monobutyrate] as the molecule, how does the MIC read?
Answer: Its MIC is 125 mmol.

Question: With `CCC(=O)O` [Propionic acid] as the molecule, how does the MIC read?
Answer: The MIC was 62 mmol.

Question: How did the MIC turn out when `CCC(=O)OCC(O)CO` (stereo not shown) [Glyceryl monopropionate] was run?
Answer: Its MIC is 250 mmol.

Question: Which MIC does the source give for `CCCC(=O)O` [Butyric acid] here?
Answer: Its MIC is 62 mmol.

Question: `CCCCC(=O)O` [Valeric acid] was tested. Which MIC did it give?
Answer: The MIC was 15 mmol.
